Measured values: paper doi:10.1101/2021.06.21.449268v1 (biorxiv, 2021)
Read-outs that look alike come from different tables or passages of the source.

Assays:
human i-20S β5i [1] = molecular target: T1, human i-20S β5i (Homo sapiens, UniProt P28062); assay: fluorogenic peptidase assay; format: biochemical; conditions: 15 μM Ac-ANW-AMC; 0.4 nM i-20S; 0.02% SDS; pH 7.5; β5i active site
T1 sequence (P28062 73-276): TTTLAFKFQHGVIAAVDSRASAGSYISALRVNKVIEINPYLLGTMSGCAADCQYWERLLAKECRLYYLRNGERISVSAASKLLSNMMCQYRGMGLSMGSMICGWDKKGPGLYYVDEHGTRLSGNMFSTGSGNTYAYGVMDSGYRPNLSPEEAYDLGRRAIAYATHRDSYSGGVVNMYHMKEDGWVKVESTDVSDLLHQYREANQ
T1 sequence (P20618 29-241 partner): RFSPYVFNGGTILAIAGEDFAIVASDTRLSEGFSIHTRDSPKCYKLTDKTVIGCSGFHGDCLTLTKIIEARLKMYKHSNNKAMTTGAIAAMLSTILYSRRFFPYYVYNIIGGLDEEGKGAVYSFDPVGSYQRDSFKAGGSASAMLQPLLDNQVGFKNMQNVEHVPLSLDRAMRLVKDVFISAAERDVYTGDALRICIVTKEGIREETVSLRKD

human c-20S β5c [2] = molecular target: T2, human c-20S β5c (Homo sapiens, UniProt P28074); assay: fluorogenic peptidase assay; format: biochemical; conditions: 25 μM suc-LLVY-AMC; 0.2 nM c-20S; 0.02% SDS; pH 7.5; β5c active site
T2 sequence (P28074 60-263): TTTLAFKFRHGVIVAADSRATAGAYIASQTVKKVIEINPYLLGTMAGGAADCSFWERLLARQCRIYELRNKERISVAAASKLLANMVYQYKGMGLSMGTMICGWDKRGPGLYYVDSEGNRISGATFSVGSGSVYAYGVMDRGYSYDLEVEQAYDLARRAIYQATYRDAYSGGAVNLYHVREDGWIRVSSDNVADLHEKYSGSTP
T2 sequence (P20618 29-241 partner): T1 sequence (P20618 29-241 partner)

Pf20S β5 [3] = molecular target: T3, Pf20S β5 (Plasmodium falciparum, UniProt Q8IJT1); assay: fluorogenic peptidase assay; format: biochemical
T3 sequence (Q8IJT1 61-271): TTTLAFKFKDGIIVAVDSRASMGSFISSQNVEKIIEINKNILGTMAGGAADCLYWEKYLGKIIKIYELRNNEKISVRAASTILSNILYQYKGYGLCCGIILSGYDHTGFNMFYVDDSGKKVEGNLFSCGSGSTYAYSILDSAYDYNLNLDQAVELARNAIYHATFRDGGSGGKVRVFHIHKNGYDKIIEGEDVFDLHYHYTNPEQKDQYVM
T3 sequence (A0A5K1K7U1 29-240 partner): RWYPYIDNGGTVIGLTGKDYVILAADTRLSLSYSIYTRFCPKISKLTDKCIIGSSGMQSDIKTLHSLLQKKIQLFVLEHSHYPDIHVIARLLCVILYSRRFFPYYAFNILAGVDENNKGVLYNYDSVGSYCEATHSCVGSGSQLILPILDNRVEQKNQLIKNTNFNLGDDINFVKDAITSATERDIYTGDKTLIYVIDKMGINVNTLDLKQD

human c-20S β5c [4] = molecular target: T2, human c-20S β5c; conditions: read-out: IC50 (nM) c-20S; inhibitor
Pf20S β5 [5] = molecular target: T3, Pf20S β5; assay: biochemical
[6] = system: Plasmodium falciparum Pf3D7; assay: microbe, parasite or virus in culture; parameters: species or system P. falciparum 3D7 in human red blood cells; conditions: Erythrocyte, read-out: EC50 (nM) Pf3D7
human i-20S β5i [7] = molecular target: T1, human i-20S β5i; conditions: read-out: IC50 (nM) i-20S; inhibitor

IC50 (human c-20S β5c [4]) [nM]	Compound	IC50 (human i-20S β5i [1]) [nM]	IC50 (human c-20S β5c [2]) [nM]	IC50 (Pf20S β5 [3]) [nM]	IC50 (Pf20S β5 [5]) [nM]	EC50 [6] [nM]	IC50 (human i-20S β5i [7]) [nM]
	C[C@H]1[C@@H](CC(=O)NCCCC(=O)N[C@@H](CC(=O)NC(C)(C)C)C(=O)NCCNC(=O)c2cc(-c3ccccc3F)ccc2F)O[C@@H]2O[C@@]3(C)CC[C@H]4[C@H](C)CC[C@@H]1[C@@]24OO3 [ATZ4]	200 ± 57	890 ± 140				
	C[C@H]1[C@H](OC(=O)CCC(=O)N[C@@H](CC(=O)NC(C)(C)C)C(=O)NCCNC(=O)c2cc(-c3ccccc3F)ccc2F)O[C@@H]2O[C@@]3(C)CC[C@H]4[C@H](C)CC[C@@H]1[C@@]24OO3 [WZ-13]			2			
> 100000	C[C@H]1[C@H](OC(=O)CCC(=O)O)O[C@@H]2O[C@@]3(C)CC[C@H]4[C@H](C)CC[C@@H]1[C@@]24OO3 [Artesunate]				> 100000	6.2 ± 4	> 100000
	C[C@H]1[C@H](OC(=O)CCC(=O)N[C@@H](CC(=O)NC(C)(C)C)C(=O)NCCNC(=O)c2cc(-c3ccccc3)ccn2)O[C@@H]2O[C@@]3(C)CC[C@H]4[C@H](C)CC[C@@H]1[C@@]24OO3 [WZ-06]			6			
	C[C@H]1[C@H](OC(=O)CCC(=O)N[C@@H](CC(=O)NC(C)(C)C)C(=O)NCCNC(=O)c2cc(-c3ccccc3)ccn2)O[C@@H]2O[C@@]3(C)CC[C@H]4[C@H](C)CC[C@@H]1[C@@]24OO3 [WZ-06, (3R,5aS,6R,8aS,9R,10S,12R,12aR)-3,6,9-trimethyldecahydro-12H-3,12-epoxy[1,2]dioxepino[4,3-i]isochromen-10-yl 4-(((S)-4-(tert-butylamino)-1,4-dioxo-1-((2-(4-phenylpicolinamido)ethyl)amino)butan-2-yl)amino)-4-oxobutanoate]				13.5 ± 7.6	3.6 ± 0.01	1100
	C[C@H]1[C@@H](CC(=O)NCC(=O)N[C@@H](CC(=O)NC(C)(C)C)C(=O)NCCNC(=O)c2cc(-c3ccccc3F)ccc2F)O[C@@H]2O[C@@]3(C)CC[C@H]4[C@H](C)CC[C@@H]1[C@@]24OO3 [ATZ2]	73 ± 19	210 ± 40				
	C[C@H]1[C@@H](CC(=O)N[C@@H](CC(=O)NC(C)(C)C)C(=O)NCCNC(=O)c2cc(-c3ccccc3F)ccc2F)O[C@@H]2O[C@@]3(C)CC[C@H]4[C@H](C)CC[C@@H]1[C@@]24OO3 [ATZ1]	650 ± 94	3600	63.2 ± 11			
	C[C@H]1[C@@H](CC(=O)NCCC(=O)N[C@@H](CC(=O)NC(C)(C)C)C(=O)NCCNC(=O)c2cc(-c3ccccc3F)ccc2F)O[C@@H]2O[C@@]3(C)CC[C@H]4[C@H](C)CC[C@@H]1[C@@]24OO3 [ATZ3]	260 ± 51		2.4 ± 0.4			
	CC(C)(C)NC(=O)C[C@H](NC(=O)CCCNC(=O)OC(C)(C)C)C(=O)NCCNC(=O)c1cc(-c2ccccc2F)ccc1F [PI01]	200 ± 46	2000				
34300	CC(C)(C)NC(=O)C[C@H](NC(=O)CCC(=O)O)C(=O)NCCNC(=O)c1cc(-c2ccccc2F)ccc1F [WZ-20, (S)-4-((4-(tert-butylamino)-1-((2-(2',4-difluoro-[1,1'-biphenyl]-3-carboxamido)ethyl)amino)-1,4-dioxobutan-2-yl)amino)-4-oxobutanoic acid]				6 ± 0.005	50.8 ± 0.7	3490

Compound	IC50 (human c-20S β5c [4]) [nM]	IC50 (human i-20S β5i [1]) [nM]	IC50 (human c-20S β5c [2]) [nM]	IC50 (Pf20S β5 [3]) [nM]	IC50 (Pf20S β5 [5]) [nM]	EC50 [6] [nM]	IC50 (human i-20S β5i [7]) [nM]
C[C@H]1[C@H](OC(=O)CCC(=O)N[C@@H](CC(=O)NC(C)(C)C)C(=O)NCCNC(=O)c2cc(-c3ccccc3F)ccc2F)O[C@@H]2O[C@@]3(C)CC[C@H]4[C@H](C)CC[C@@H]1[C@@]24OO3 [WZ-13, (3R,5aS,6R,8aS,9R,10S,12R,12aR)-3,6,9-trimethyldecahydro-12H-3,12-epoxy[1,2]dioxepino[4,3-i]isochromen-10-yl 4-(((S)-4-(tert-butylamino)-1-((2-(2',4-difluoro-[1,1'-biphenyl]-3-carboxamido)ethyl)amino)-1,4-dioxobutan-2-yl)amino)-4-oxobutanoate]	440 ± 110				5.5 ± 3.8	2.5 ± 0.7	158 ± 50
